# Where “and” joins values, the source holds several entries; their conditions need not be identical. Identical values can stand only once.
# Columns and labels:
# [1] = target: T1, xanthine oxidase (grade I from buttermilk) (Bos taurus, UniProt P80457); assay: Xanthine oxidase inhibition (xanthine oxidase assay), uric acid production; format: biochemical; details: xanthine substrate, pH 7.8, absorbance at 295 nm; for IC50: read-out: IC-50 xanthine oxidase inhibition (converted)
# T1 construct: XOD (xanthine oxidase) (grade I from buttermilk); from tissue; host or cells: buttermilk
# T1 sequence (P80457 whole entry): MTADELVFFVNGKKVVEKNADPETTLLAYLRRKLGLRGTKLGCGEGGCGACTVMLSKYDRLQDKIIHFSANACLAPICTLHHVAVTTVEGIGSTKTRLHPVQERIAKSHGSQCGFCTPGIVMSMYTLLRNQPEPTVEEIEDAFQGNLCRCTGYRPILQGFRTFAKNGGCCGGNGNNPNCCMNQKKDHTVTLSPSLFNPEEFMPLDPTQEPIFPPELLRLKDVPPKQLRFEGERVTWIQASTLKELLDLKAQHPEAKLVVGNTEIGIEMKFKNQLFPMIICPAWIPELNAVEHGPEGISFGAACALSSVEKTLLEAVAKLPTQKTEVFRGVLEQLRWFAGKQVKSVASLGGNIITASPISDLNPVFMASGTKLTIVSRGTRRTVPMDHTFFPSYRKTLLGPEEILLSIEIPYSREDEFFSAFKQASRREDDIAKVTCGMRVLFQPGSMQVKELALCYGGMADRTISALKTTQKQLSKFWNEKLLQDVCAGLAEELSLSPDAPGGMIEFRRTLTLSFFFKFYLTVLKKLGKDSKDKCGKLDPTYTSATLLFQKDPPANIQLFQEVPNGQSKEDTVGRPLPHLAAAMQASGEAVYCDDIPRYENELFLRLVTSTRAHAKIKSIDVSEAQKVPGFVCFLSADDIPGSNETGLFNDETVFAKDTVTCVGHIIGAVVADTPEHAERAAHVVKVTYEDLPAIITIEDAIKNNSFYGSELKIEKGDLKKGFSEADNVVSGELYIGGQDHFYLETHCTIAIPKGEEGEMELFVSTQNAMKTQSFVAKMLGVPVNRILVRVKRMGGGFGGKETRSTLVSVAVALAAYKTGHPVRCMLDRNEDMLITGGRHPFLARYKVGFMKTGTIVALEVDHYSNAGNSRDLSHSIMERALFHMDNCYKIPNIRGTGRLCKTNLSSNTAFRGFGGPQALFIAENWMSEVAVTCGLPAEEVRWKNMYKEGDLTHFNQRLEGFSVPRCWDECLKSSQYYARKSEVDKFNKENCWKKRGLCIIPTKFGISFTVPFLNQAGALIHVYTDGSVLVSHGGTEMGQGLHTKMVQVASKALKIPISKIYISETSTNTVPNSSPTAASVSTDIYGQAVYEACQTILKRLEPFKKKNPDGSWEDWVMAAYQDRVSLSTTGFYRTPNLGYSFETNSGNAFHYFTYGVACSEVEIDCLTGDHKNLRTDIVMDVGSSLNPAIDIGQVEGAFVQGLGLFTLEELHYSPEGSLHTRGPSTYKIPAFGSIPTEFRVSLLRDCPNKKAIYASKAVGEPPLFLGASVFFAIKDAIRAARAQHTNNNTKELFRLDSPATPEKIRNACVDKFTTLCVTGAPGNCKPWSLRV
# Method: Xanthine Oxidase Inhibition (Xanthine Oxidase Assay)
# The activity of xanthine oxidase is determined by means of the uric acid production.
# This solution is maintained on ice during the entire experiment to prevent changes in the activity of the enzyme.
# 724 μl phophate buffer pH=7.8
# 10 μl DMSO or the substance to be tested dissolved in DMSO
# The reaction is started by addition of 66 μl of the enzyme solution to the above described assay mixture. […] If the reaction is linear, the result is expressed as Δ absorbance/min. […] The maximum activity is the activity of the enzyme, when no substance is dissolved in DMSO.
# [2] = Peroxyl radical scavenging (β-phycoerythrin fluorescence assay, ORACROO); format: biochemical; set-up: key to TE (Trolox equivalent) (based on mole weight): ratio of net curve area to Trolox's, molar basis; details: relative to Trolox, area under fluorescence curve
# Method: In the β-phycoerythrin fluorescence based assay the reduction of β-phycoerythrin decomposition by radicals resulting from the thermal decomposition of V50 is measured. […]
# Peroxyl Radical Scavenging (β-phycoerythrin fluorescence assay)
# The principle underlying the present method is that B-phycoerythrin is decomposed by radicals that are the result of the thermolitic decomposition of V50 at 20° C. When a product scavenges these radicals, the decrease in fluorescence in time will occur less quickly. All measurements should be carried out at least in threefold.
# AAPH (2,2′-azobis(2-aminopropane)dihydrochloride) (e.g. from Wako Chemicals)=V50; MW=271.19 g/mol; 16 mM in the assay
# β-PE (e.g. from Sigma) MW=240,000 g /mol; 16.7 nM in the assay
# Trolox (e.g. from Aldrich) MW =250.29 g/mol; in the assay test in the range of 1-10 μM.
# Each tray should contain trolox as a reference and as a standard (2 μM or 0.5 mg/l). As a negative control a sample is taken containing only 10 μl ethanol, 50 μl 50 mM PBS, pH=7.4 and 50 μl 66.8 nM β-PE.
# The reaction is started by adding 100 μl 32nM V-50. The time between pipetting and mixing of this last step in a well and the measurement of this well, should be constant. Further, the time between the last pipetting step in a well and the first measurement of the well should be less than 2 minutes.
# V-50 should be stored in the dark at 4° C. until used. The reaction kinetics of the wells are monitored in a continuous monitoring process. The excitation wavelength is 540 nm, while the emission wavelength is 565 nm. The reaction is monitored until the signal of the sample differs no longer from the background signal (±10%). The area underneath the curve of the negative reference is subtracted from the area underneath the substance to be measured. This difference in area is then related to a difference in area in relation to a negative reference resulting from trolox.
Structure (SMILES),IC50 [1],TE (Trolox equivalent) (based on mass) [2],TE (Trolox equivalent) (based on mole weight) [2],IC-50 xanthine oxidase inhibition [1]
O=c1cc(-c2ccc(O)cc2)oc2cc(O)cc(O)c12 [Apigenin],0.999 µM and 1 µM,1.56,1.69,–
O=c1cc(-c2ccccc2)oc2cc(O)cc(O)c12 [Chrysin],2.54 µM and 2.5 µM,–,–,–
COc1cc(/C=C/C(=O)CC(=O)/C=C/c2ccc(O)c(OC)c2)ccc1O [Curcumin],–,–,–,not detectable
Oc1cc(O)c2c(c1)O[C@H](c1ccc(O)c(O)c1)[C@H](O)C2 [Epicatechin],–,–,–,not detectable
"O=C(O[C@@H]1Cc2c(O)cc(O)cc2O[C@@H]1c1cc(O)c(O)c(O)c1)c1cc(O)c(O)c(O)c1 [Epigalo-catechin-galate (ECCG), Epigalo-catechin-galate]",–,0.54,0.99,not detectable
O=c1cc(-c2ccc(O)c(O)c2)oc2cc(O)cc(O)c12 [Luteolin],0.751 µM and 0.75 µM,1.22,1.40,–
O=c1c(O)c(-c2cc(O)c(O)c(O)c2)oc2cc(O)cc(O)c12 [Myricetin],1.51 µM and 1.5 µM,0.89,1.13,–
O=C1c2ccc(O)cc2O[C@H](c2ccc(O)c(O)c2)[C@H]1O [fustin],–,1.07,1.24,–
O=c1c(O)c(-c2ccc(O)c(O)c2)oc2cc(O)cc(O)c12 [quercetin],–,1.32,1.78,–

# Reference: patent US20060270615A1, “Compositions suitable for the treatment of damage caused by ischemia/reper-fusion or oxidative stress” (N.V. NUTRICIA, priority 2000, published 2006)
